Reference: US20050153938A1, “Polyphosphonate derivatives for toothpaste compositions” (Universite D'Angers, priority 2002, published 2005)

Columns and labels:
[1] = Tests of efficiency of polyphosphonate compounds for preventing bonding of proteins; details: compared with diphosphonic esters, sulfonates, phosphates, carboxylates and diphosphates
Experimental: One particular difficulty lies in identification of compounds with a particularly efficient behaviour for the required application.
This TMADP compound has been synthesised in a single step using hydroxyethylidene biphosphonic acid (HEDP) and glycidyltrimethylammonium chloride. The reaction was done in DMSO previously conserved on a molecular sieve. After dissolution of HEDP (2 g; 14.5×10^−3 mol) at 50° C. in 30 ml of DMSO, the epoxyde (2.2 g; 14.5×10^−3 mol) is added and the temperature is increased to 110° C. for 24 hours. The DMSO is then evaporated at low pressure and the raw product is dissolved in a minimum amount of distilled water. The TMADP product is then chromatographed on a cation exchanger resin (DOWEX 50WX8-20/50 Mesh, H+form). The column is eluted with distilled water and the pure product is collected at a pH of between 3.0 and 3.5.

[2] = Model of protection of a stainless steel plate against bonding of proteins
From the text: A sufficient coverage quantity of TMADP molecules on this model is […] per nm^2 of plaque surface area.

SMILES: C[N+](C)(C)CCCCCC(P(=O)(O)O)P(=O)(O)O [6-trimethylammoniohexyl-1,1-bisphosphonic acid]
- efficiency of the compound (result in words) [1]: particularly conclusive results

SMILES: CC(OCC(O)C[N+](C)(C)C)(P(=O)(O)O)P(=O)(O)O.[Cl-] (stereo not shown) [TMADP, 2,2-diphosphono-5-hydroxy-3-oxa-6-hexyltrimethylammonium (TMADP) chloride]
- contamination by proteins ([2]; TMADP concentration 2.86×10^−4 mol.I-1, 10 minutes incubation of the plaque (stainless steel plate)): less than 10%
- contamination by proteins ([2]; TMADP concentration about 1.4×10^−4 mol.I-1, stainless steel plate): about 15%
- efficiency of the compound (result in words) [1]: particularly conclusive results
